Experimental data published in patent US9539301B2, “Melanotropin ligands for skin care” (THE ARIZONA BOARD OF REGENTS ON BEHALF OF THE UNIVERSITY OF …, priority 2011, dated 2017).
pEC50: −log10 of the molar value. “Also recorded” adds a separate entry of the source. Square brackets hold non-standard residues; d marks the D form. Peptide text beside a SMILES is read from it. d2Nal = N[C@H](Cc1ccc2ccccc2c1)C(=O)O; Nle = CCCC[C@H](N)C(=O)O

Experiments:
[1] = type: physicochemical; conditions: pH 7.4
Description: The log of the octanol-water partition coefficient at pH 7.4 (log D7.4) was determined by miniaturised shake flask assay. Briefly, (200 µL to 1 mL) n-octanol (Sigam) was added to a solution of the test compound prepared in PBS (25 mM NaH2PO4/Na2HPO4 buffer, pH 7.4, Sigma, HPLC grade). Then, three different ratios of octanol to PBS buffer were prepared. The mixture was stirred in a vortex mixer at room temperature for 1 min and then two layers were separated by centrifuge. The concentration of compound in each layer was determined by HPLC (Poroshell 120 EC-C18 column) using (26% acetonitrile in water, 0.1% TFA) in 280 nm channel. All sample injections were performed 3 times, and the results were averaged to yield the final values.
To measure lipophilicity of the probe, log D (distribution co-efficient) was determined.

[2] = mouse, in vivo
Description: (§1) Tumors, kidneys and liver were excised, rinsed with PBS, blotted dry, and then imaged ex vivo with Optix-MX3 as described above. Images were analyzed as described above.
(§2) The pharmacokinetics of probe uptake and clearance was also characterized using a three-compartment mathematical model, which includes tumor, kidney and mouse volumes, and assumes mass conservation of the ligand. This model was used to account for the interference of the tumor ligand release in the uptake and clearance dynamics of blood and kidneys.

[3] = tested on: A375/MC1R and A375 xenograft tumors; test: Tumor xenograft fluorescence imaging, in vivo tumor targeting and blocking; parameters: species or system nu/nu mice
Description: Female nu/nu mice 6-8 weeks old (Harlan Sprague Dawley, Inc., Indianapolis, Ind.) were injected subcutaneously (s.c.) with 1×10^6 MC1R expressing A375 cells in the right and the parental one in the left flank. Tumor volume was determined with calipers using the formula: volume=(length×width^2)/2. Once tumors reached 500-800 mm^3, 1 nmol/kg-30 nmol/kg of MC1R imaging probe in 100 µL sterile saline was injected into the tail vein. In vivo fluorescence images were acquired using the Optix-MX3 (Advance Research Technologies, Inc. a subsidiary of SoftScan Healthcare Group, Montreal, Canada). Animals were positioned on a heating pad and anesthetized using isoflurane (flow 2-2.5 l/min). Fluorescence images were acquired using a scan resolution of 1.5 mm and a 790-nm pulsed laser diode with 40 MHz frequency and 12-ns time window. Images were analyzed using Optix-MX3 Optiview Software (version 3.01). Autofluorescence background was subtracted by determining the mean tumor fluorescence signal prior to injection, then mean normalized intensity values were obtained within a ROI on these images.
Tumors were excised and center slice of each tumor was imaged using both Optix-MX3 (as described above) and IVIS 200 imaging system (Caliper LifeSciences, MA). For IVIS 200 acquisitions, the standard ICG excitation and emission filter set was used for imaging. After imaging, the slices were fixed in formalin and embedded in paraffin for histology. Formalin fixed sections (5 µm) were stained with hematoxylin and eosin (H&E). […]
To investigate tumor targeting of the probe in vivo, bilateral subcutaneous xenograft tumors were established with A375/MC1R engineered cells in the right flank, and A375 parental cells with relatively low MC1R expression in the left flank. After tumor growth to approximately 500-800 mm^3, MC1RL-800 was injected intravenously and fluorescence accumulation was monitored over time. […] IHC staining confirmed the high and low MC1R expression in the two tumor types, and areas with the highest IHC staining corresponded to areas with the highest fluorescence signal (FIG. 27B).

[4] = mouse, in vivo, iv, 5 nmol/kg
Description: as §1, §2

[5] = tested on: A375/MC1R cells; test: In vitro MC1R probe uptake study (fluorescence microscopy); type: cell-based, human
Description: Samples were viewed using an Axio Observer Z1 inverted fluorescence microscope (Carl Zeiss, Inc, Germany) using 40×/1.3NA oil immersion objectives through a narrow band Cy5 filter. Cy5 fluorescence images were prepared with a DIC overlay image using Axiovision 4.6 software (Carl Zeiss, Inc, Germany).
To study uptake of the MC1R probe onto and into cells, MC1RL-800 probe was incubated with live cells and images were acquired at different time-points after incubation using an inverted microscope.

[6] = target: MC1R (Homo sapiens, UniProt Q01726); conditions: footnote: value denotes an EC50; read-out: EC50 MC1R (values derived from literature); cited from earlier work
MC1R, sequence (Q01726 whole entry): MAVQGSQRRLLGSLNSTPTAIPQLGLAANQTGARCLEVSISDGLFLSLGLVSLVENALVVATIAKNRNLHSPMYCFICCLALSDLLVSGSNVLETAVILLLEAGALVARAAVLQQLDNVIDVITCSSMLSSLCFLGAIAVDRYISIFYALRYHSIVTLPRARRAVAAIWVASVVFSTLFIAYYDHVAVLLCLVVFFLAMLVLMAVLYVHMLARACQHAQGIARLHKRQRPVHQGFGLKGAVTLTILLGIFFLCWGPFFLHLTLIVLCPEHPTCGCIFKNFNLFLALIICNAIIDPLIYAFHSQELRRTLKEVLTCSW

[7] = target: MC4R (Homo sapiens, UniProt P32245); conditions: footnote: value denotes an EC50; read-out: EC50 MC4R (values derived from literature); cited from earlier work
MC4R, sequence (P32245 whole entry): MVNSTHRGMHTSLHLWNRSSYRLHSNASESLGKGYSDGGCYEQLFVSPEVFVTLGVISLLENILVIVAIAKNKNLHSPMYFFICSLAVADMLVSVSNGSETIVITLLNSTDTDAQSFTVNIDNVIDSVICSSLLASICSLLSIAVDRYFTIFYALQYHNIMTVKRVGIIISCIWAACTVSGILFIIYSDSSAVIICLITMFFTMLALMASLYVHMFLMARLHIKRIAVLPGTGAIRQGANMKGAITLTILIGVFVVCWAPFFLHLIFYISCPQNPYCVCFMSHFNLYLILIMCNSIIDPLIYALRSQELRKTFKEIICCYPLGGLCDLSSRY

[8] = target: MC5R (Homo sapiens, UniProt P33032); conditions: footnote: value denotes an EC50; read-out: EC50 MC5R (values derived from literature); cited from earlier work
MC5R, sequence (P33032 whole entry): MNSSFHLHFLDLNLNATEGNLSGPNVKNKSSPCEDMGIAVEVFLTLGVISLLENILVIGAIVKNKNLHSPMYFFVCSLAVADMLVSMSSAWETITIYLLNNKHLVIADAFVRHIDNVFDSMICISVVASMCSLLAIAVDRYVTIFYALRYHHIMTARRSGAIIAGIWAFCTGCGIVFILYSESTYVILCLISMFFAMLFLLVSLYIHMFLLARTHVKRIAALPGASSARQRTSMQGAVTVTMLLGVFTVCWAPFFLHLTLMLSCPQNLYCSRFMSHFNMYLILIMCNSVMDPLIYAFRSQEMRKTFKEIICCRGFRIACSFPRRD

[9] = co-injection 0.25 μg NDP-a-MSH with 5 nmol/kg probe, 2 hr
[10] = A375/MC1R cells, after incubation

Structure (SMILES) | logD [1] | accumulation in the liver [2] | kidney signal relative to tumor [2] | normalized fluorescence signal of A375 (low MC1R) tumors compared to A375/MC1R tumors ([3]; 2 h post-injection, n=3) | decrease of probe fluorescence signal after blocking, A375/MC1R tumors [3, 9] | decrease of probe fluorescence signal after blocking, A375 tumor [3, 9] | half-life [4] | probe binding after blocking with NDP-α-MSH ([5]; 2 μM NDP-α-MSH added before probe) | time at which binding of probe to cell surface is observed [5, 10] | time of intracellular accumulation / internalization [5, 10] | pEC50 [6] | pEC50 [7] | pEC50 [8]
CC1(C)C(=CC=C2CCCC(C=CC3=[N+](CCCCCC(=O)NCCN4C(=O)CC(SCCC(=O)NCCCC[C@H](NC(=O)CNC(=O)[C@H](Cc5c[nH]c6ccccc56)NC(=O)[C@H](CCCNC(=N)N)NC(=O)[C@@H](Cc5ccccc5)NC(=O)[C@H](Cc5c[nH]cn5)NC(=O)CCCc5ccccc5)C(N)=O)C4=O)c4ccc(S(=O)(=O)[O-])cc4C3(C)C)=C2Oc2ccc(S(=O)(=O)O)cc2)N(CCCCS(=O)(=O)O)c2ccc(S(=O)(=O)O)cc21 (stereo partly drawn) [MC1RL-800, 4-phenylbutyryl-His-DPhe-Arg-Trp-Gly-Lys(Mpr-IR800CW)-NH2] | -2.96 | did not accumulate | 2 fold | significantly lower | 1.54 fold | 1.4 fold | ~10 h | No attachment; also recorded: No binding or uptake | ≤ 15 s | ≤ 5 min |  |  | 
CCCC[C@H](NC(=O)[C@@H](NC(=O)[C@@H](N)Cc1ccc(O)cc1)C(C)C)C(=O)NCC(=O)N[C@@H](Cc1cnc[nH]1)C(=O)N[C@H](Cc1ccc2ccccc2c1)C(=O)N[C@@H](CCCNC(=N)N)C(=O)N[C@H](Cc1ccccc1)C(=O)N[C@@H](CC(=O)O)C(=O)N[C@@H](CCCNC(=N)N)C(=O)N[C@@H](Cc1ccccc1)C(=O)NCC(N)=O [Compound 7, H-Tyr-Val-Nle-Gly-His-DNal(2′)-Arg-DPhe-Asp-Arg-Phe-Gly-NH2] (H-YV[Nle]GH[d2Nal]R[dF]DRFG-NH2) |  |  |  |  |  |  |  |  |  |  | 8.80 | 7.70 | 8.48
